Data as given in patent publication US20250231185A1, “Coronavirus T Cell Epitopes, Megapools and Uses Thereof” (La Jolla Institute for Immunology, priority 2021, published 2025).
Read-outs that look alike come from different tables or passages of the source.

Key:
[1] = test system: CD8+ T cells; conditions: cited from earlier work
[2] = test system: CD8+ T cells; assay: Meta-analysis of published SARS-CoV-2 CD8 T cell epitope data curated in the IEDB (25 studies); format: cell-based, human
[3] = SARS-CoV-2 Ag S, T cell type recognizing the epitope
[4] = SARS-CoV-2 Ag S, CD8 epitopes, dominant = recognized by 3 or more donors/different studies
[5] = T cell type (CD4 or CD8) recognizing the SARS-CoV-2 epitope
[6] = SARS-CoV-2-derived CD8 epitopes, dominant = recognized by 3 or more donors/different studies
[7] = CD8S (D) Megapool, antigen S, dominant = recognized in 3 or more donors/studies
[8] = CD8-restricted SARS-CoV-2 epitopes, Yes = recognized by 3 or more donors/different studies
[9] = CD8 epitopes, Yes = recognized by 3 or more donors/different studies

In the case of 1350 (SVASQSIIAY) [compound 1350], the Restriction [1, 3] is given as “CD8” and the Dominant [2, 4] is given as “Yes (more dominant epitopes are defined by being recognized by 3 or more donors/different studies)”.
In the case of 1067 (KQFDTYNLW) [compound 1067], the Restriction [1, 5] is listed as “CD8” and the Dominant [2, 6] is listed as “Yes (more dominant epitopes are defined by being recognized by 3 or more donors/different studies)”.
In the case of 909 (ALRANSAVK) [compound 909], the Restriction [1, 5] is listed as “CD8” and the Dominant [2, 6] is listed as “Yes (more dominant epitopes are defined by being recognized by 3 or more donors/different studies)”.
In the case of 964 (RQLLFVVEV) [compound 964], the Restriction [1, 5] is listed as “CD8” and the Dominant [2, 6] is listed as “Yes (more dominant epitopes are defined by being recognized by 3 or more donors/different studies)”.
For 913 (YTELEPPCRF) [compound 913], the Restriction [1, 5] is listed as “CD8” and the Dominant [2, 6] is listed as “Yes (more dominant epitopes are defined by being recognized by 3 or more donors/different studies)”.
For 1392 (LQIPFAMQMAY) [compound 1392], the Restriction [1, 3] is given as “CD8” and the Dominant [2, 4] is given as “Yes (more dominant epitopes are defined by being recognized by 3 or more donors/different studies)”.
For 1342 (IGAEHVNNSY) [compound 1342], the Restriction [1, 3] is listed as “CD8” and the Dominant [2, 4] is listed as “Yes (more dominant epitopes are defined by being recognized by 3 or more donors/different studies)”.
In the case of 1053 (TYACWHHSI) [compound 1053], the Restriction [1, 5] is given as “CD8” and the Dominant [2, 6] is given as “Yes (more dominant epitopes are defined by being recognized by 3 or more donors/different studies)”.
In the case of 1422 (HLMSFPQSA) [compound 1422], the Restriction [1, 3] is listed as “CD8” and the Dominant [2, 4] is listed as “Yes (more dominant epitopes are defined by being recognized by 3 or more donors/different studies)”.
For YLQPRTFLL [SEQ ID NO: 1481], the recognized in subjects ([1]; Ferretti et al., 67% of the subjects tested) is listed as ≥ 3 subjects, the IFN-f response ([1]; Habel et al., 14 peptides screened, HLA-A*02:01) is listed as “strongest” and the “detected in HLA-A2+ individuals” value ([1]; Nielsen study, HLA-A*02:01) is listed as 81%. The “responses detected in patients” value ([1]; Rha et al., 37 of 112 and 2 of 40 patients) was 33%, the “MHC class I multimer+ cells in unexposed subjects” value ([1]; Rha et al.) was “not detected” and the dominance as reported ([1]; Sahin et al.) was “most dominant epitope”. The “found to be positive in independent studies” value ([2]; overall, all curated studies) was 11 independent studies.
In the case of 1466 (SEPVLKGVKL) [compound 1466], the Restriction [1, 3] is listed as “CD8” and the Dominant [2, 4] is listed as “Yes (more dominant epitopes are defined by being recognized by 3 or more donors/different studies)”.
For 920 (TVLSFCAFAV) [compound 920], the Restriction [1, 5] is given as “CD8” and the Dominant [2, 6] is given as “Yes (more dominant epitopes are defined by being recognized by 3 or more donors/different studies)”.
For 1303 (NYNYLYRLF) [compound 1303], the Restriction [1, 3] is listed as “CD8” and the Dominant [2, 4] is listed as “Yes (more dominant epitopes are defined by being recognized by 3 or more donors/different studies)”.
In the case of 1396 (TQNVLYENQK) [compound 1396], the Restriction [1, 3] is given as “CD8” and the Dominant [2, 4] is given as “Yes (more dominant epitopes are defined by being recognized by 3 or more donors/different studies)”.
For 992 (DTDFVNEFY) [compound 992], the Restriction [1, 5] is given as “CD8” and the Dominant [2, 6] is given as “Yes (more dominant epitopes are defined by being recognized by 3 or more donors/different studies)”.
In the case of 1431 (VVFLHVTYV) [compound 1431], the Restriction [1, 3] is given as “CD8” and the Dominant [2, 4] is given as “Yes (more dominant epitopes are defined by being recognized by 3 or more donors/different studies)”.
In the case of 910 (CTDDNALAYY) [compound 910], the Restriction [1, 5] is given as “CD8” and the Dominant [2, 6] is given as “Yes (more dominant epitopes are defined by being recognized by 3 or more donors/different studies)”.
In the case of 1020 (LVLSVNPYV) [compound 1020], the Restriction [1, 5] is listed as “CD8” and the Dominant [2, 6] is listed as “Yes (more dominant epitopes are defined by being recognized by 3 or more donors/different studies)”.
For 1366 (TECSNLLLQY) [compound 1366], the Restriction [1, 3] is listed as “CD8” and the Dominant [2, 4] is listed as “Yes (more dominant epitopes are defined by being recognized by 3 or more donors/different studies)”.
For 1453 (NLNESLIDL) [compound 1453], the Restriction [1, 3] is listed as “CD8” and the Dominant [2, 4] is listed as “Yes (more dominant epitopes are defined by being recognized by 3 or more donors/different studies)”.
In the case of 1352 (SIIAYTMSL) [compound 1352], the Restriction [1, 3] is listed as “CD8” and the Dominant [2, 4] is listed as “Yes (more dominant epitopes are defined by being recognized by 3 or more donors/different studies)”.
For 930 (YTMADLVYAL) [compound 930], the Restriction [1, 5] is given as “CD8” and the Dominant [2, 6] is given as “Yes (more dominant epitopes are defined by being recognized by 3 or more donors/different studies)”.
In the case of 719 (NYMPYFFTL) [compound 719], the Dominant [2, 6] is reported as “Yes (more dominant epitopes are defined by being recognized by 3 or more donors/different studies)”.
With 1494 (SPRRARSVA) [compound 1494] the Dominant [2, 7] was “Yes (more dominant epitopes are defined by being recognized by 3 or more donors/different studies)”.
In the case of 1150 (FTSDYYQLY) [compound 1150], the Dominant [2, 8] is reported as “Yes (more dominant epitopes are defined by being recognized by 3 or more donors/different studies)”.
With 423 (YVYSRVKNL) [compound 423] the Dominant [2, 9] was “Yes (more dominant epitopes are defined by being recognized by 3 or more donors/different studies)”.
In the case of 1517 (NLNESLIDL) [compound 1517], the Dominant [2, 7] is reported as “Yes (more dominant epitopes are defined by being recognized by 3 or more donors/different studies)”.
In the case of 1176 (KLFIRQEEV) [compound 1176], the Dominant [2, 8] is reported as “Yes (more dominant epitopes are defined by being recognized by 3 or more donors/different studies)”.
With 1495 (SVASQSIIAY) [compound 1495] the Dominant [2, 7] was “Yes (more dominant epitopes are defined by being recognized by 3 or more donors/different studies)”.
With 737 (SLDTYPSLETI) [compound 737] the Dominant [2, 6] was “Yes (more dominant epitopes are defined by being recognized by 3 or more donors/different studies)”.
In the case of 498 (RIRGGDGKMK) [compound 498], the Dominant [2, 9] is reported as “Yes (more dominant epitopes are defined by being recognized by 3 or more donors/different studies)”.
With 1497 (SIIAYTMSL) [compound 1497] the Dominant [2, 7] was “Yes (more dominant epitopes are defined by being recognized by 3 or more donors/different studies)”.
In the case of 1190 (KLGSLVVRC) [compound 1190], the Dominant [2, 8] is reported as “Yes (more dominant epitopes are defined by being recognized by 3 or more donors/different studies)”.
In the case of 1226 (TEKSNIIRGW) [compound 1226], the Dominant [2, 8] is reported as “Yes (more dominant epitopes are defined by being recognized by 3 or more donors/different studies)”.
With 1519 (KWPWYIWLGF) [compound 1519] the Dominant [2, 7] was “Yes (more dominant epitopes are defined by being recognized by 3 or more donors/different studies)”.
In the case of 1266 (YLQPRTFLL) [compound 1266], the Dominant [2, 8] is reported as “Yes (more dominant epitopes are defined by being recognized by 3 or more donors/different studies)”.
For 1479 (LLALHRSYL) [compound 1479], the Dominant [2, 7] was “Yes (more dominant epitopes are defined by being recognized by 3 or more donors/different studies)”.
In the case of 1132 (YLYALVYFL) [compound 1132], the Dominant [2, 8] is reported as “Yes (more dominant epitopes are defined by being recognized by 3 or more donors/different studies)”.
With 1263 (YYVGYLQPRTF) [compound 1263] the Dominant [2, 8] was “Yes (more dominant epitopes are defined by being recognized by 3 or more donors/different studies)”.
For 491 (NTASWFTAL) [compound 491], the Dominant [2, 9] was “Yes (more dominant epitopes are defined by being recognized by 3 or more donors/different studies)”.
In the case of 1259 (WTAGAAAYY) [compound 1259], the Dominant [2, 8] is reported as “Yes (more dominant epitopes are defined by being recognized by 3 or more donors/different studies)”.
With 463 (SELVIGAVIL) [compound 463] the Dominant [2, 9] was “Yes (more dominant epitopes are defined by being recognized by 3 or more donors/different studies)”.
